These results are taken from patent US9611278B2 (Merck Sharp & Dohme Corp., priority 2013, dated 2017).

The target in the test is T1, sGC α1/β1 heterodimer stably expressed in CHO-K1 cells (CHO-K1/sGC) (Homo sapiens, UniProt Q02108+Q02153).
T1 construct: expressed in transfected cells
T1 sequence (Q02108 1-690): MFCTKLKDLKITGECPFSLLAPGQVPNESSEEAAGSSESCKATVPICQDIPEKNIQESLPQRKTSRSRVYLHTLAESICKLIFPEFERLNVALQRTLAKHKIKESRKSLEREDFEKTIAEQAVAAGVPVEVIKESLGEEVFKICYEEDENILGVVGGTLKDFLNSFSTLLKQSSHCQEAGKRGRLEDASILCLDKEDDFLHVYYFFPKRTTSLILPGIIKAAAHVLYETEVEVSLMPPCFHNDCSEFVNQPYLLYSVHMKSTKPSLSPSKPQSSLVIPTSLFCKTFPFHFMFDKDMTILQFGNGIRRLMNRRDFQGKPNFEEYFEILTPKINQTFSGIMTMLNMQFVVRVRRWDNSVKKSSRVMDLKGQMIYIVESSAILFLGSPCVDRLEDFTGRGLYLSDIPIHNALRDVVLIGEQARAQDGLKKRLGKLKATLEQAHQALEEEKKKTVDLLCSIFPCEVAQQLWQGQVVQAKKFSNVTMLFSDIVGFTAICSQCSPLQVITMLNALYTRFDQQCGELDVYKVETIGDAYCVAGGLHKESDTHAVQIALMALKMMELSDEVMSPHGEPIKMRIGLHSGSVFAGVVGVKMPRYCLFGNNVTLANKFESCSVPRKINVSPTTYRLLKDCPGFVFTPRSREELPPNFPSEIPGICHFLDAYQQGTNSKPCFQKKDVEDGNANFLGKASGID
T1 sequence (Q02153 1-619): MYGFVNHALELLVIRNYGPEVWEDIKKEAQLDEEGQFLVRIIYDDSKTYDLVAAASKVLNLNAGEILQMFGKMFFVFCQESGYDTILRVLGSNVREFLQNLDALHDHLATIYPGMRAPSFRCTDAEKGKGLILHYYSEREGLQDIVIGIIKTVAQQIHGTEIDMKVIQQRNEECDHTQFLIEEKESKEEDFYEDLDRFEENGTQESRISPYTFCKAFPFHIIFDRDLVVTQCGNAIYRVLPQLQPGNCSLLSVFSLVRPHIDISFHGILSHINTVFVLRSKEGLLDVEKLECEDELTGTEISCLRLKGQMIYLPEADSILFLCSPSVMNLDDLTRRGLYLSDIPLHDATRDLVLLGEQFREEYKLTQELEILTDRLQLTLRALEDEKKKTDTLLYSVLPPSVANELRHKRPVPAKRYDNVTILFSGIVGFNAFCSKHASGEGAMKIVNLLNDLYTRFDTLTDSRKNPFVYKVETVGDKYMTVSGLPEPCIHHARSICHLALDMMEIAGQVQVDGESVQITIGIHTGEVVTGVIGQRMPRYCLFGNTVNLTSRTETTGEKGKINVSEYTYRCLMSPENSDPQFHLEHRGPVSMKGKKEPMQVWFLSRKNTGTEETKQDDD
The experiment in a line: Cell-based sGC Functional Assay (CASA Assay). Conditions: for Emax: CHO-K1, activation as percentage of maximum cGMP production of Compound A (set to 100%), read-out: % Act.; for EC50: inflection point of cGMP generation in CHO-K1/sGC cells, 4P fit, 1 hr at 37° C., read-out: IP. The source says:
sGC is a heme-containing enzyme that converts GTP to secondary messenger cGMP. Increases in cGMP levels affect several physiological processes including vasorelaxation through multiple downstream pathways. […] Heme-dependent activators (HDAs) preferentially activate sGC containing a ferrous heme group. To determine the effect of sGC activators on enzyme activity, the CASA assay was developed to monitor the generation of cGMP in a cell line that stably expresses the heterodimeric sGC protein.
A CHO-K1 cell line stably expressing the sGC α1/β1 heterodimer was generated using a standard transfection protocol. CHO-K1 cells were transfected with plasmids pIREShyghsGCα1 and pIRESneo-hsGCβ1 simultaneously using FUGENE reagent. Clones that stably express both subunits were selected with hygromycin and neomycin for ˜2 weeks. Clone #7 was chosen for the assay and was designated CHO-K1/sGC. CHO-K1/sGC cells were maintained in F-K12 medium containing 10% heat-inactivated Fetal Bovine Serum (FBS), 100 μg/mL penicillin/streptomycin, 0.5 mg/mL hygromycin and 0.25 mg/mL G418. The cells were then cryopreserved in LN2. On the day of the assay, cells thawed and resuspended in EBSS Assay Buffer (EAB, Sigma, E3024) supplemented with 5 mM MgCl2, 10 mM HEPES (4-(2-hydroxyethyl)piperazine-1-ethanesulfonic acid) and 0.05% BSA (bovine serum albumin) and cell density was then adjusted to 4×10^5/mL with EAB. IBMX (3-isobutyl-1-methylxanthin, 0.5 mM) was added to inhibit degradation of cGMP. Compounds were diluted from DMSO stock solutions and added to the assay at a final DMSO concentration of 2.5%. Cells were incubated with compounds in the presence and absence of 1 μM of Diethylenetriamine/nitric oxide adduct (DETA-NO; Sigma, 17018) for 1 hr at 37° C. At the end of the incubation period, the reaction was terminated and the cells were lysed with the detection reagents from Cisbio Kits. The level of intracellular cGMP was determined using an HTRF-based assay kit (CisBio, 62GM2PEC), which detects the displacement of a fluorescence labeled cGMP from its specific antibody. The cGMP produced by test compounds was directly compared to the maximum cGMP production (this value was set to equal 100% activation.) of the published sGC-HDA Compound A:
(Example 1 in WO 2010/065275, published Jun. 10, 2010). The test compounds' activity were then expressed as a percentage of Compound A, the standard in every experiment. This percent activation was calculated either in the presence or absence of DETA-NO which was then plotted. IP and maximum fold induction was derived using ADA analysis software for 4P fit.

Take `Cn1ncc2c(-c3nc(N)c4c(n3)NC(=O)C4(C)c3cn(C4CCC4)nn3)nc(CCC(F)(F)C(F)(F)F)nc21` (single isomer, unassigned) [Example 74, 4-Amino-5-(1-cyclobutyl-1H-1,2,3-triazol-4-yl)-5-methyl-2-(1-methyl-6-(3,3,4,4,4-pentafluorobutyl)-1H-pyrazolo[3,4-d]pyrimidin-4-yl)-5,7-dihydro-6H-pyrrolo[2,3-d]pyrimidin-6-one]: the Emax amounted to 120% and the EC50 amounted to 78 nM.

On to `C=CCn1cc(C2(C)C(=O)Nc3nc(-c4nc(CCC(F)(F)C(F)(F)F)nc5c4cnn5C)nc(N)c32)nn1` (single isomer, unassigned) [Example 75, 5-(1-allyl-1H-1,2,3-triazol-4-yl)-4-amino-5-methyl-2-(1-methyl-6-(3,3,4,4,4-pentafluorobutyl)-1H-pyrazolo[3,4-d]pyrimidin-4-yl)-5,7-dihydro-6H-pyrrolo[2,3-d]pyrimidin-6-one], for which the Emax was determined as 139% and the EC50 was 175 nM.

In the case of `[2H]C([2H])([2H])n1cc(C2(C)C(=O)Nc3nc(-c4nc(CCC(F)(F)C(F)(F)F)nc5c4cnn5C([2H])([2H])[2H])nc(N)c32)nn1` (single isomer, unassigned) [Example 76, 4-Amino-5-methyl-5-(1-(methyl-d3)-1H-1,2,3-triazol-4-yl)-2-(1-(methyl-d3)-6-(3,3,4,4,4-pentafluorobutyl)-1H-pyrazolo[3,4-d]pyrimidin-4-yl)-5,7-dihydro-6H-pyrrolo[2,3-d]pyrimidin-6-one], the Emax stood at 148% and the EC50 was found to be 168 nM.

With `[2H]C([2H])([2H])n1cc(C2(C)C(=O)Nc3nc(-c4nc(CCC(F)(F)C(F)(F)F)nc5c4cnn5C)nc(N)c32)nn1` (single isomer, unassigned) [Example 77, 4-Amino-5-methyl-2-(1-methyl-6-(3,3,4,4,4-pentafluorobutyl)-1H-pyrazolo[3,4-d]pyrimidin-4-yl)-5-(1-(methyl-d3)-1H-1,2,3-triazol-4-yl)-5,7-dihydro-6H-pyrrolo[2,3-d]pyrimidin-6-one], the Emax stood at 157% and the EC50 was found to be 168 nM.

In the case of `[2H]C([2H])([2H])n1ncc2c(-c3nc(N)c4c(n3)NC(=O)C4(C)c3ccc(F)cn3)nc(CCC(F)(F)C(F)(F)F)nc21` (stereo not shown) [Example 2, 4-Amino-5-(5-fluoropyridin-2-yl)-5-methyl-2-(1-(methyl-d3)-6-(3,3,4,4,4-pentafluorobutyl)-1H-pyrazolo[3,4-d]pyrimidin-4-yl)-5H-pyrrolo[2,3-d]pyrimidin-6(7H)-one], the Emax stood at 135% and the EC50 was found to be 72 nM.

Take `Cc1noc(C2(C)C(=O)Nc3nc(-c4nc(Cc5cccc(F)c5F)nc5c4cnn5C)nc(N)c32)n1` (stereo not shown) [Example 5, 4-Amino-2-(6-(2,3-difluorobenzyl)-1-methyl-1H-pyrazolo[3,4-d]pyrimidin-4-yl)-5-methyl-5-(3-methyl-1,2,4-oxadiazol-5-yl)-5,7-dihydro-6H-pyrrolo[2,3-d]pyrimidin-6-one]: the Emax was found to be 88% and the EC50 amounted to 10 nM.

For `CC(CC(F)(F)F)c1nc(-c2nc(N)c3c(n2)NC(=O)C3(C)c2ccc(F)cn2)c2cnn(C)c2n1` (stereo not shown) [Example 6, 4-Amino-5-(5-fluoropyridin-2-yl)-5-methyl-2-(1-methyl-6-(4,4,4-trifluorobutan-2-yl)-1H-pyrazolo[3,4-d]pyrimidin-4-yl)-5,7-dihydro-6H-pyrrolo[2,3-d]pyrimidin-6-one], the Emax stood at 137% and the EC50 amounted to 604 nM.

With `[2H]C([2H])([2H])n1ncc2c(-c3nc(N)c4c(n3)NC(=O)C4(C)c3ccccn3)nc(CCC(F)(F)C(F)(F)F)nc21` (stereo not shown) [Example 7, 4-Amino-5-methyl-2-(1-(methyl-d3)-6-(3,3,4,4,4-pentafluorobutyl)-1H-pyrazolo[3,4-d]pyrimidin-4-yl)-5-(pyridin-2-yl)-5,7-dihydro-6H-pyrrolo[2,3-d]pyrimidin-6-one], the Emax is 147% and the EC50 is 212 nM.

As to `[2H]C([2H])([2H])n1ncc2c(-c3nc(N)c4c(n3)NC(=O)C4(C)c3nc(C4CC4)no3)nc(CCC(F)(F)C(F)(F)F)nc21` (stereo not shown) [Example 8, 4-Amino-5-(3-cyclopropyl-1,2,4-oxadiazol-5-yl)-5-methyl-2-(1-(methyl-d3)-6-(3,3,4,4,4-pentafluorobutyl)-1H-pyrazolo[3,4-d]pyrimidin-4-yl)-5,7-dihydro-6H-pyrrolo[2,3-d]pyrimidin-6-one], the Emax is 126% and the EC50 was 49 nM.

Consider `[2H]C([2H])([2H])n1ncc2c(-c3nc(N)c4c(n3)NC(=O)C4(C)c3ncccn3)nc(CCC(F)(F)C(F)(F)F)nc21` (stereo not shown) [Example 9, 4-Amino-5-methyl-2-(1-(methyl-d3)-6-(3,3,4,4,4-pentafluorobutyl)-1H-pyrazolo[3,4-d]pyrimidin-4-yl)-5-(pyrimidin-2-yl)-5,7-dihydro-6H-pyrrolo[2,3-d]pyrimidin-6-one], for which the Emax was 121% and the EC50 was found to be 116 nM.

`[2H]C([2H])([2H])n1ncc2c(-c3nc(N)c4c(n3)NC(=O)C4(C)c3ccc(C(F)(F)F)nc3)nc(CCC(F)(F)C(F)(F)F)nc21` (stereo not shown) [Example 10, 4-Amino-5-methyl-2-(1-(methyl-d3)-6-(3,3,4,4,4-pentafluorobutyl)-1H-pyrazolo[3,4-d]pyrimidin-4-yl)-5-(6-(trifluoromethyl)pyridin-3-yl)-5,7-dihydro-6H-pyrrolo[2,3-d]pyrimidin-6-one]: the Emax is 114% and the EC50 turned out to be 665 nM.

With `[2H]C([2H])([2H])n1ncc2c(-c3nc(N)c4c(n3)NC(=O)C4(C)c3coc(C)n3)nc(CCC(F)(F)C(F)(F)F)nc21` (stereo not shown) [Example 11, 4-Amino-5-methyl-2-(1-(methyl-d3)-6-(3,3,4,4,4-pentafluorobutyl)-1H-pyrazolo[3,4-d]pyrimidin-4-yl)-5-(2-methyloxazol-4-yl)-5,7-dihydro-6H-pyrrolo[2,3-d]pyrimidin-6-one], the Emax was 126% and the EC50 turned out to be 626 nM.

Take `[2H]C([2H])([2H])n1ncc2c(-c3nc(N)c4c(n3)NC(=O)C4(C)c3ccc(OC)cn3)nc(CCC(F)(F)C(F)(F)F)nc21` (stereo not shown) [Example 12, 4-Amino-5-(5-methoxypyridin-2-yl)-5-methyl-2-(1-(methyl-d3)-6-(3,3,4,4,4-pentafluorobutyl)-1H-pyrazolo[3,4-d]pyrimidin-4-yl)-5,7-dihydro-6H-pyrrolo[2,3-d]pyrimidin-6-one]: the Emax was found to be 104%.
